According to patent US5393774A, “Phenylethanolamines, pharmaceutical compositions containing these compounds and process for preparing them” (priority 1990, dated 1995):
Where two headings read alike, the source gives them in different places.

System: bronchospasm triggered by intravenous administration of 20 μg/kg of acetyl-choline
Assay: broncholytic effect, test arrangement according to KONZETT and ROSSLER on anesthetized guinea-pigs
Assay type: in vivo
Conditions: Cavia porcellus, read-out: ED50 (broncholytic effect, reduction in acetyl-choline bronchospasm)
[1] = after i.v. administration, anesthetized guinea-pigs, 20 μg/kg acetyl-choline i.v., linear regression analysis

Procedure: The broncholytic effect was investigated by the test arrangement according to KONZETT and ROSSLER (Arch. exp. Path. Pharmak. 195, 71 (1940)) on anesthetized guinea-pigs. An ED50 was calculated from the average percentage reduction, achieved with the various intravenous doses, in the bronchospasm triggered by intravenous administration of 20 μg/kg of acetyl-choline, by linear regression analysis according to LINDER (Statistische Methoden, 4th Edition, pp. 148-162, Birkhauser, Basel 1964):

Compound | ED50 [1] | ED50
Nc1c(Cl)cc(C(O)CNCCCCCCOCCCCc2ccccc2)cc1Cl (stereo not shown) [V] | > 400 µg/kg | 
Cl.N#Cc1cc(C(O)CNCCCCCCOCCCCc2ccccc2)cc(F)c1N (stereo not shown) [Substance B, 1-(4-amino-3-cyano-5-fluoro-phenyl)-2-[6-(4-phenylbutoxy)-hexyl-amino]ethanol-hydrochloride] | 2.5 µg/kg | 
COc1ccc(CC(C)NCC(O)c2cc(F)c(N)c(C#N)c2)cc1.Cl (stereo not shown) [Substance C, 1-(4-amino-3-cyano-5-fluoro-phenyl)-2-[2-(4-methoxyphenyl)-1-methyl-ethylamino]-ethanol-hydrochloride] |  | 0.16 µg/kg
CCOC(=O)Nc1c(F)cc(C(O)CNCCCCCCOCCCCc2ccccc2)cc1C#N.Cl (stereo not shown) [Substance A, 1-(4-ethoxycarbonylamino-3-cyano-5-fluoro-phenyl)-2-[6-(4-phenyl-butoxy)hexylamino]-ethanol-hydrochloride] | 10.2 µg/kg | 
